For data set [1], the target named is T1, APEH (partially purified from human red blood cells) (Homo sapiens, UniProt P13798).
T1 construct: incubated with APEH partially purified from human blood cells; from tissue; host or cells: human red blood cells (erythrocyte hemolysate from donors' blood)
T1 sequence (P13798 1-732): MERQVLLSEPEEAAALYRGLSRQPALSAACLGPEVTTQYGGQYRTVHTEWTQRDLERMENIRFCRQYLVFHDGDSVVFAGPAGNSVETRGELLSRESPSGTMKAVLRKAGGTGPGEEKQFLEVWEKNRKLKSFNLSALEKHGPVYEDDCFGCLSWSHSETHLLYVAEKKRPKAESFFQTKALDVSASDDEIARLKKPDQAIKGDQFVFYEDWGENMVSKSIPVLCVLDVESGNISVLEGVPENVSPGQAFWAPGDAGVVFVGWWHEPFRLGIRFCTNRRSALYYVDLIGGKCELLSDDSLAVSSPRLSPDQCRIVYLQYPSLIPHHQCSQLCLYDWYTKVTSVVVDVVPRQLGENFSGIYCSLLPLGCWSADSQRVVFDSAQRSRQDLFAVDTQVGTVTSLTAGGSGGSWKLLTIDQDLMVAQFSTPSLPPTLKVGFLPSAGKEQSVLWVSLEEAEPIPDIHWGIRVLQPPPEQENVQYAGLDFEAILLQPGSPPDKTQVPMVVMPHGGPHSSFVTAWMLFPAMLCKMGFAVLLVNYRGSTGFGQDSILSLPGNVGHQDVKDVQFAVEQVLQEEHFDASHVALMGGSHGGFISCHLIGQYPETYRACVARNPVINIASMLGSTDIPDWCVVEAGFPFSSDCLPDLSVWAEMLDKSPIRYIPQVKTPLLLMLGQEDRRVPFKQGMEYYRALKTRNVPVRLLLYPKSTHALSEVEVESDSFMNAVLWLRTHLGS
Put plainly: APEH enzyme inhibition assay with substrate Ac-Met-AMC. Format: biochemical. Conditions: inhibitor 62 µM, APEH sample 0.7 μg, pre-incubated 30 min at 37 °C, then Ac-Met-AMC added; data not shown. Here is the method: Human APEH was obtained as a partially purified product from the red blood cells by a combination of anion exchange and gel filtration chromatography as described. The purification procedure was monitored by SDS-PAGE analysis of active pooled fractions (Supplementary Figure S3). Specifically, each peak fraction eluted from the gel filtration column was assayed with the specific APEH substrate Ac-Met-AMC and analyzed by Western blotting to assess the identity of the enzyme, using the commercial APEH from porcine liver (APEHpl) as control (Supplementary Figure S4A,B). The molecular mass determined by SDS-PAGE of the partially purified protein was 75 kDa, in agreement with that predicted on the basis of the amino acid sequence. Moreover, gel filtration chromatography on Superdex 200 column allowed estimating a molecular mass for the native APEH of […] as calculated by the calibration curve (Supplementary Figure S4A), confirming that the enzyme is a homo-tetramer composed of four 75 kDa subunits, as already reported.
Blood samples were taken from donors using syringes with heparin. […] Enzyme purification was monitored using Ac-Met-7-amino-4-methylcoumarin (AMC) as substrate. Active fractions were analyzed by SDS-PAGE (12%) in order to evaluate the enrichment of the protein during the various purification steps. […]

For data set [2], the system named is APEH. Put plainly: APEH partially purified from human blood cells (0.7 μg, 24.000 total units) in Tris-HCl 25 mM pH 7.5. As to conditions: 37 °C, up to 48 h.
The next data set deals with truncated form of APEH. As to conditions: cited from earlier work.
The subject of data set [3] is APEH. As to conditions: cited from earlier work.

“Also recorded” adds a separate entry of the source. Where two headings read alike, the source gives them in different places.

Turning to `CC(C)CC(O)(CC(C)C)c1cnn(C(=O)N2CCCC2)n1` [AA74-1], the “inhibition of APEH activity” value in data set [1] was “totally inhibited”.
As for Ac-EYAFAQKYPHTHLVQQA-NH2, the not cleaved in the data set with APEH [2] is 100% intact; N.D. (not degraded) after 48 h.
Ac-EYM(ox)AAQKYPHTHLVQQA-NH2: in the data set on APEH [2], the cleaved bond result is given as “Q62-Q; also recorded: H59-L, major”.
Ac-EYM(ox)AM(ox)QKYPHTHLVQQA-NH2: the cleaved bond entry in the data set on APEH [2] is given as “Q62-Q; also recorded: H59-L, major”.
Turning to Ac-EYM(ox)FM(ox)QEYPHTHLVQQA-NH2, in the data set with APEH [2], the not cleaved entry is “did not undergo cleavage on Q62”.
Ac-EYM(ox)FM(ox)QKYPHTHLVQQA-NH2: the cleaved bond result in the data set on APEH [2] was “H59-L60, major; also recorded: Q62-Q; also recorded: L60-V”.
Ac-EYMFMQKYPHTHLVQQA-NH2: the not cleaved entry in the data set on APEH [2] is “No cleavage was observed; N.D. (not degraded) after 48 h”.
GIVEQC(ox)C(ox)ASVC(ox)SLYQLENYC(ox)N: the cleaved bond entry in the data set on truncated form of APEH was “A-S and Y-Q”.
Consider “…^205FGERALKAWSVARL ↓ SQKFPKAEF^227… …^397LGEYGFQNALIVRY ↓ TRKVPQVST^419… …^493DETYVPKAFDEKLF ↓ TFHADICTL^515…”, for which, in the data set on APEH [3], the cleaved bond entry is “L-S and Y-T and F-T”.

The values above are taken from article PMC8745263 (International Journal of Molecular Sciences, 2021).
